# From article PMC2819846 (Mutation research, 2008)
# Like-named read-outs stand apart in the source and are kept apart here.
# Tests used:
# Salmonella TA100 = experiment: Salmonella plate-incorporation mutagenicity assay, strain TA100; format: cell-based
# [1] = test system: DNA from Salmonella TA100; experiment: Abasic sites by aldehydic-site assay in DNA of treated TA100; format: cell-based; details: DMSO 5.9 ± 0.33
# Salmonella TA104 = experiment: Salmonella plate-incorporation mutagenicity assay, strain TA104, with S9 mix; format: cell-based
# [2] = test system: DNA from Salmonella TA100; experiment: Stable DNA adducts by 32P-postlabeling in DNA of treated TA100; format: cell-based; details: DMSO 0.024 ± 0.000
# Salmonella TA98 = experiment: Salmonella plate-incorporation mutagenicity assay, strain TA98, with S9 mix; format: cell-based
# strain TA100 = format: cell-based, Salmonella; details: TA100 liquid-suspension; for Rev/10^6 survivors: DMSO 0.8; for Percent survival: DMSO 100
structure (smiles),measurement,setting,value
"O[C@@H]1C=Cc2c(ccc3ccc4sccc4c23)[C@H]1O (racemic) [P[3,4-b]T 8,9-diol, (±)-trans-8,9-Dihydrophenanthro[3,4-b]thiophene 8,9-diol]",Rev/plate,"Salmonella TA100; TA100 +S9, Test 1, 2 µg/plate, zero-dose 99/110/110",326 rev/plate
same,Rev/plate,"Salmonella TA100; TA100 +S9, Test 1, 5 µg/plate, zero-dose 99/110/110",554 rev/plate
same,Rev/plate,"Salmonella TA100; TA100 +S9, Test 1, 10 µg/plate, zero-dose 99/110/110",755 rev/plate
same,Rev/plate,"Salmonella TA100; TA100 +S9, Test 1, 20 µg/plate, zero-dose 99/110/110",995 rev/plate
same,Rev/plate,"Salmonella TA100; TA100 +S9, Test 1, 40 µg/plate, zero-dose 99/110/110",992 rev/plate
same,Rev/plate,"Salmonella TA100; TA100 +S9, Test 1, 80 µg/plate, zero-dose 99/110/110",847 rev/plate
same,Rev/plate,"Salmonella TA100; TA100 +S9, Test 2, 0.5 µg/plate, zero-dose 84/78/80",80/94
same,Rev/plate,"Salmonella TA100; TA100 +S9, Test 2, 1 µg/plate, zero-dose 84/78/80",140/116
same,Rev/plate,"Salmonella TA100; TA100 +S9, Test 2, 2.5 µg/plate, zero-dose 84/78/80",268/224
same,Rev/plate,"Salmonella TA100; TA100 +S9, Test 2, 5 µg/plate, zero-dose 84/78/80",352/315
same,Rev/plate,"Salmonella TA100; TA100 +S9, Test 3, 0.5 µg/plate, zero-dose 127/118/125",147/151
same,Rev/plate,"Salmonella TA100; TA100 +S9, Test 3, 1 µg/plate, zero-dose 127/118/125",178/187
same,Rev/plate,"Salmonella TA100; TA100 +S9, Test 3, 2.5 µg/plate, zero-dose 127/118/125",347/430
same,Rev/plate,"Salmonella TA100; TA100 +S9, Test 3, 5 µg/plate, zero-dose 127/118/125",545/614
same,"Mutagenic potency, Revertants/µg ± S.E., TA100","Salmonella TA100; plate-incorporation, +S9",80.0 ± 13.2 rev/µg
same,Mutagenicity call TA100,"Salmonella TA100; plate-incorporation, +S9","(+) (Called mutagenic (+) based on showing reproducible, dose-related increases in rev/plate that reached or exceeded 2-fold relative to zero-dose controls)"
same,Abasic sites/10^5 nucleotides ± S.E,"[1]; TA100, 2 µg/ml",2.9 ± 0.23 sites/10^5 nucleotides
same,Abasic sites/10^5 nucleotides ± S.E,"[1]; TA100, 5 µg/ml",4.7 ± 0.25 sites/10^5 nucleotides
same,Rev/plate,"Salmonella TA104; TA104 +S9, Test 2, 0.5 µg/plate, zero-dose 276/260/270",486/465
same,Rev/plate,"Salmonella TA104; TA104 +S9, Test 2, 1 µg/plate, zero-dose 276/260/270",213/673
same,Rev/plate,"Salmonella TA104; TA104 +S9, Test 2, 2.5 µg/plate, zero-dose 276/260/270",1311/1300
same,Rev/plate,"Salmonella TA104; TA104 +S9, Test 2, 5 µg/plate, zero-dose 276/260/270",1723/1755
same,Rev/plate,"Salmonella TA104; TA104 +S9, Test 3, 0.5 µg/plate, zero-dose 402/395/336",566/525
same,Rev/plate,"Salmonella TA104; TA104 +S9, Test 3, 1 µg/plate, zero-dose 402/395/336",754/785
same,Rev/plate,"Salmonella TA104; TA104 +S9, Test 3, 2.5 µg/plate, zero-dose 402/395/336",1235/1287
same,Rev/plate,"Salmonella TA104; TA104 +S9, Test 3, 5 µg/plate, zero-dose 402/395/336",1508/1620
same,"Mutagenic potency, Revertants/µg ± S.E., TA104","Salmonella TA104; plate-incorporation, +S9",369 ± 28 rev/µg
same,Mutagenicity call TA104,"Salmonella TA104; plate-incorporation, +S9","(+) (Called mutagenic (+) based on showing reproducible, dose-related increases in rev/plate that reached or exceeded 2-fold relative to zero-dose controls)"
same,Stable adducts/10^8 nucleotides ± S.E,"[2]; TA100, 2 µg/ml",0.170 ± 0.045 adducts/10^8 nucleotides
same,Stable adducts/10^8 nucleotides ± S.E,"[2]; TA100, 5 µg/ml",0.750 ± 0.045 adducts/10^8 nucleotides
same,Rev/plate,"Salmonella TA98; TA98 +S9, Test 1, 2 µg/plate, zero-dose 33/40/39",61 rev/plate
same,Rev/plate,"Salmonella TA98; TA98 +S9, Test 1, 5 µg/plate, zero-dose 33/40/39",87 rev/plate
same,Rev/plate,"Salmonella TA98; TA98 +S9, Test 1, 10 µg/plate, zero-dose 33/40/39",94 rev/plate
same,Rev/plate,"Salmonella TA98; TA98 +S9, Test 1, 20 µg/plate, zero-dose 33/40/39",156 rev/plate
same,Rev/plate,"Salmonella TA98; TA98 +S9, Test 1, 40 µg/plate, zero-dose 33/40/39",285 rev/plate
same,Rev/plate,"Salmonella TA98; TA98 +S9, Test 1, 80 µg/plate, zero-dose 33/40/39",412 rev/plate
same,Rev/plate,"Salmonella TA98; TA98 +S9, Test 2, 10 µg/plate, zero-dose 43/41/30",104/110
same,Rev/plate,"Salmonella TA98; TA98 +S9, Test 2, 20 µg/plate, zero-dose 43/41/30",124/134
same,Rev/plate,"Salmonella TA98; TA98 +S9, Test 2, 40 µg/plate, zero-dose 43/41/30",276/244
same,Rev/plate,"Salmonella TA98; TA98 +S9, Test 2, 80 µg/plate, zero-dose 43/41/30",381/323
same,Rev/plate,"Salmonella TA98; TA98 +S9, Test 3, 10 µg/plate, zero-dose 49/50/50",143/142
same,Rev/plate,"Salmonella TA98; TA98 +S9, Test 3, 20 µg/plate, zero-dose 49/50/50",193/190
same,Rev/plate,"Salmonella TA98; TA98 +S9, Test 3, 40 µg/plate, zero-dose 49/50/50",315/359
same,Rev/plate,"Salmonella TA98; TA98 +S9, Test 3, 80 µg/plate, zero-dose 49/50/50",448/459
same,"Mutagenic potency, Revertants/µg ± S.E., TA98","Salmonella TA98; plate-incorporation, +S9",5.6 ± 0.8 rev/µg
same,Mutagenicity call TA98,"Salmonella TA98; plate-incorporation, +S9","(+) (Called mutagenic (+) based on showing reproducible, dose-related increases in rev/plate that reached or exceeded 2-fold relative to zero-dose controls)"
same,Fold increase in mutant frequency relative to DMSO-treated cells,strain TA100; 2 µg/ml,2.5 fold
same,Rev/10^6 survivors,strain TA100; 2 µg/ml,2.0 Rev/10^6 survivors
same,Percent survival,strain TA100; 2 µg/ml,91%
same,Fold increase in mutant frequency relative to DMSO-treated cells,strain TA100; 5 µg/ml,2.8 fold
same,Rev/10^6 survivors,strain TA100; 5 µg/ml,2.2 Rev/10^6 survivors
same,Percent survival,strain TA100; 5 µg/ml,63%
